The values that follow come from the NIST ThermoML archive (doi:10.1021/je4004965).

Numbers after ± are expanded uncertainties.

A short description of series [1]: molar heat capacity at constant pressure. Particulars: 101.33 kPa, Liquid, Small sample (50 mg) DSC.
The conditions of series [2]: 101.33 kPa, Liquid; for speed of sound: Pulse-echo method; for mass density: Vibrating tube method.

By speed of sound is commonly meant the propagation velocity of pressure waves in the medium. A word on the mass density: it is mass per unit of volume. As to `CCn1cc[n+](C)c1.F[B-](F)(F)F` [1-ethyl-3-methylimidazolium tetrafluoroborate], the “molar heat capacity at constant pressure” value in series [1] (293.15 K) was found to be 303.73 ± 4.7 J/K/mol; in series [1] (298.15 K) it was 305.35 ± 4.7 J/K/mol; in series [1] (303.15 K) it was 306.16 ± 4.7 J/K/mol; in series [1] (308.15 K), 308.94 ± 4.8 J/K/mol. Also, the speed of sound in series [2] (293.15 K) is 1631.1 ± 2.2 m/s; in series [2] (298.15 K) it was 1619.4 ± 2.1 m/s; in series [2] (303.15 K) it was 1607.6 ± 2.1 m/s; in series [2] (308.15 K), 1596.3 ± 2.1 m/s. Besides, the mass density was 1283.89 ± 1.7 kg/m3 in series [2] (293.15 K), 1279.91 ± 1.7 kg/m3 in series [2] (298.15 K), 1276.26 ± 1.7 kg/m3 in series [2] (303.15 K) and 1272.07 ± 1.7 kg/m3 in series [2] (308.15 K).

`Cc1ccccc1N` [2-methylaniline]: the “molar heat capacity at constant pressure” value in series [1] (293.15 K) is 215.96 ± 3.4 J/K/mol; in series [1] (298.15 K), 217.16 ± 3.4 J/K/mol; in series [1] (303.15 K) it was 218.43 ± 3.4 J/K/mol; in series [1] (308.15 K), 219.52 ± 3.4 J/K/mol. In addition, the speed of sound in series [2] (293.15 K) is recorded as 1622.2 ± 1.3 m/s; in series [2] (298.15 K), 1602.3 ± 1.3 m/s; in series [2] (303.15 K), 1577.7 ± 1.3 m/s; in series [2] (308.15 K) it was 1558.2 ± 1.3 m/s. For the same molecule, the mass density in series [2] (293.15 K) worked out at 998.431 ± 1 kg/m3; in series [2] (298.15 K), 994.358 ± 1 kg/m3; in series [2] (303.15 K), 990.23 ± 1 kg/m3; in series [2] (308.15 K) it was 986.064 ± 1 kg/m3.

Take `Cc1ccccn1` [2-methylpyridine]: the “molar heat capacity at constant pressure” value in series [1] (293.15 K) was 157.07 ± 2.4 J/K/mol; in series [1] (298.15 K), 158.86 ± 2.5 J/K/mol; in series [1] (303.15 K) it was 160.14 ± 2.5 J/K/mol; in series [1] (308.15 K), 160.66 ± 2.5 J/K/mol. In addition, the speed of sound in series [2] (293.15 K) was determined as 1400.5 ± 2.1 m/s; in series [2] (298.15 K), 1380.1 ± 2.1 m/s; in series [2] (303.15 K), 1361 ± 2.1 m/s; in series [2] (308.15 K), 1339.9 ± 2.1 m/s. In addition, the mass density in series [2] (293.15 K) is reported as 944.401 ± 1.2 kg/m3; in series [2] (298.15 K), 939.802 ± 1.2 kg/m3; in series [2] (303.15 K), 935.117 ± 1.2 kg/m3; in series [2] (308.15 K) it was 930.414 ± 1.2 kg/m3.

On to `Cc1cccnc1` [3-methylpyridine], for which the “molar heat capacity at constant pressure” value in series [1] (293.15 K) stood at 156.05 ± 2.4 J/K/mol; in series [1] (298.15 K) it was 158.75 ± 2.5 J/K/mol; in series [1] (303.15 K), 160.83 ± 2.5 J/K/mol; in series [1] (308.15 K), 160.96 ± 2.5 J/K/mol. Besides, the speed of sound in series [2] (293.15 K) is recorded as 1445.9 ± 1.2 m/s; in series [2] (298.15 K) it was 1424 ± 1.2 m/s; in series [2] (303.15 K) it was 1404.1 ± 1.2 m/s; in series [2] (308.15 K), 1384 ± 1.2 m/s. Also, the mass density is recorded as 956.581 ± 1 kg/m3 in series [2] (293.15 K), 952.002 ± 1 kg/m3 in series [2] (298.15 K), 947.449 ± 1 kg/m3 in series [2] (303.15 K) and 942.831 ± 1 kg/m3 in series [2] (308.15 K).

Turning to `Cc1ccncc1` [4-methylpyridine], the “molar heat capacity at constant pressure” value in series [1] (293.15 K) was 155.88 ± 2.4 J/K/mol; in series [1] (298.15 K), 158.52 ± 2.5 J/K/mol; in series [1] (303.15 K) it was 160.84 ± 2.5 J/K/mol; in series [1] (308.15 K), 160.83 ± 2.5 J/K/mol. Besides, the speed of sound in series [2] (293.15 K) turned out to be 1451.1 ± 1.2 m/s; in series [2] (298.15 K), 1431.5 ± 1.2 m/s; in series [2] (303.15 K) it was 1410.7 ± 1.2 m/s; in series [2] (308.15 K), 1389.9 ± 1.2 m/s. Also, the mass density is 955.099 ± 1 kg/m3 in series [2] (293.15 K), 950.179 ± 1 kg/m3 in series [2] (298.15 K), 945.413 ± 1 kg/m3 in series [2] (303.15 K) and 940.821 ± 1 kg/m3 in series [2] (308.15 K).

`c1ccncc1` [pyridine]: the “molar heat capacity at constant pressure” value turned out to be 130.49 ± 2 J/K/mol in series [1] (293.15 K), 131.74 ± 2 J/K/mol in series [1] (298.15 K), 132.71 ± 2.1 J/K/mol in series [1] (303.15 K) and 133.82 ± 2.1 J/K/mol in series [1] (308.15 K). In addition, the speed of sound was found to be 1442 ± 1.2 m/s in series [2] (293.15 K), 1417.8 ± 1.2 m/s in series [2] (298.15 K), 1398 ± 1.2 m/s in series [2] (303.15 K) and 1377.1 ± 1.2 m/s in series [2] (308.15 K). In addition, the mass density in series [2] (293.15 K) is listed as 983.191 ± 1 kg/m3; in series [2] (298.15 K), 978.249 ± 1 kg/m3; in series [2] (303.15 K) it was 973.224 ± 1 kg/m3; in series [2] (308.15 K) it was 968.166 ± 1 kg/m3.
